Each compound was assayed against T1, Ubiquitin carboxyl-terminal hydrolase 7 (Homo sapiens, UniProt Q93009) (assay: Inhibition of native full length C-terminal USP7 (unknown origin) using ubiquitin-Rho110 as substrate incubated for 1 hr by fluorescence assay).
T1 sequence (Q93009 whole entry): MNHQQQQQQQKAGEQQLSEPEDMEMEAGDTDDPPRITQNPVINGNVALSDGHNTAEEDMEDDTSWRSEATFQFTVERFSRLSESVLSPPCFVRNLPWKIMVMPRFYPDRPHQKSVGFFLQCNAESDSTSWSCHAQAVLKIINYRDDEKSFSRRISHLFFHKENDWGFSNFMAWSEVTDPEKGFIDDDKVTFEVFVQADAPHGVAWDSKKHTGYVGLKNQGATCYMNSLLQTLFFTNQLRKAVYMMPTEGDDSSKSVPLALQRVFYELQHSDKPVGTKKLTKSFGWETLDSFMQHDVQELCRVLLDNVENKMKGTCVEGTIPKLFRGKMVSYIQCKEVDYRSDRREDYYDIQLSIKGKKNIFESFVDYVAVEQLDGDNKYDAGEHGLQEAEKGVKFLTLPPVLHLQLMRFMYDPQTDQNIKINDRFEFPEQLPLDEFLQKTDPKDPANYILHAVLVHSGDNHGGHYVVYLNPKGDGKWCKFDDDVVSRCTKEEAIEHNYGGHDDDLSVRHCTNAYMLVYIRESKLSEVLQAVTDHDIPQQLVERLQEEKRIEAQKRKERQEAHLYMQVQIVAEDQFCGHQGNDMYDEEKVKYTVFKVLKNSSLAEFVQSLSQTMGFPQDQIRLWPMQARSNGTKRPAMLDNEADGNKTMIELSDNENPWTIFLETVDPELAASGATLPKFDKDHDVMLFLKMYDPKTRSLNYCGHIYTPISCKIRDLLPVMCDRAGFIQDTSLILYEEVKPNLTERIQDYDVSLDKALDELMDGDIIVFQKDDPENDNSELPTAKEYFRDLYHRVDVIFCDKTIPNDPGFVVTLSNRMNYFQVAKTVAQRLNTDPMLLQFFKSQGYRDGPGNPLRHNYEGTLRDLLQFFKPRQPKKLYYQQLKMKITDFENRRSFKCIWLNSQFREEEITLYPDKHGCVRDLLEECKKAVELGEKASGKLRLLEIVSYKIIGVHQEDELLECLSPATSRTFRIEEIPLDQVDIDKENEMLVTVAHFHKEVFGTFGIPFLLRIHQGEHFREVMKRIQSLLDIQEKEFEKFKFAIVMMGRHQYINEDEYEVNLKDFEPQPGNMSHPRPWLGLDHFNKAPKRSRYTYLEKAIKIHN
For `CCc1c(-c2ccc(O)cc2)cnc(N)c1-c1ccc(O)cc1`, the IC50 was 2.5 µM. For `Oc1ccc(-c2nc(C3CCNCC3)co2)cc1`, the IC50 was 85.2 µM. `Nc1ncc(-c2ccccc2Cl)cc1-c1ccc(O)cc1` showed an IC50 of 33.2 µM. `Oc1ccc(-c2cncc(-c3ccc(O)cc3)c2)cc1` was tested, and the IC50 was over 50 µM. `CC(=O)Nc1cccc(-c2cnc(N)c(-c3ccc(O)cc3)c2)c1` was tested, and the IC50 was 15.1 µM. `CCc1c(-c2ccc(O)cc2)cnc(N)c1-c1cccc(C#N)c1` showed an IC50 of 5.2 µM. Compound `Oc1ccc(-c2nc(C3CCNC3)no2)cc1` (stereo unspecified) has an IC50 of 132 µM. Compound `CCc1c(-c2ccc(C(=O)NC)nc2)cnc(N)c1-c1ccc(O)cc1` has an IC50 of 1.34 µM. With `CCc1c(-c2cccc(C#N)c2)cnc(N)c1-c1ccc(O)cc1` the IC50 was 2.5 µM. With `Fc1cccc(OCC2CCNCC2)c1` the IC50 was over 2000 µM. Work on `Oc1ccc(-c2ncc(C3CCNCC3)o2)cc1` yielded an IC50 of 32.8 µM. In the case of `CCc1c(-c2ccc3cn[nH]c3c2)cnc(N)c1-c1ccc(O)cc1`, the IC50 is reported as 0.48 µM. For `Oc1ccc(-c2ncc(C3CCNCC3)o2)c(F)c1`, the IC50 was 18.4 µM. `N#Cc1c(-c2ccc(O)cc2)cnc(N)c1-c1ccc(O)cc1` showed an IC50 of over 200 µM. In the case of `CCc1c(-c2ccccc2)cnc(N)c1-c1ccc(O)cc1`, the IC50 is reported as 9.6 µM. With `Nc1ncc(-c2ccc(O)cc2)cc1-c1ccc(O)cc1` the IC50 was 11.1 µM. With `Oc1ccc(-c2nc(C3CCNCC3)no2)cc1` the IC50 was 97.7 µM. `CC(C)c1c(-c2ccc(O)cc2)cnc(N)c1-c1ccc(O)cc1` gave an IC50 of 21.4 µM. With `CN1CCC(c2noc(-c3ccc(O)cc3)n2)C1` (stereo unspecified) the IC50 was 131 µM. In the case of `CN1CCC(c2noc(-c3ccc(O)cc3)n2)CC1`, the IC50 is reported as 79.2 µM. `CCc1c(-c2ccc(O)cc2)cnc(N)c1-c1ccc2[nH]ncc2c1` was tested, and the IC50 was 0.61 µM. `CCCc1c(-c2ccc(O)cc2)cnc(N)c1-c1ccc(O)cc1` gave an IC50 of 13.6 µM. `Cc1c(-c2ccc(O)cc2)cnc(N)c1-c1ccc(O)cc1` gave an IC50 of 7.6 µM. `CCc1c(-c2ccc(O)cc2)cnc(N)c1-c1ccccc1` was tested, and the IC50 was 22.4 µM. Compound `Nc1nc(N)c(-c2ccc(O)cc2)cc1-c1ccc(O)cc1` has an IC50 of 8.5 µM.

Each compound was assayed against T1, Ubiquitin carboxyl-terminal hydrolase 7 (assay: Inhibition of USP7 in human SJSA cells assessed as increase in ubiquitinated MDM2 level after 16 hrs in presence of MG132 by MSD assay).
Type: cell-based
For `CCc1c(-c2ccc(O)cc2)cnc(N)c1-c1cccc(C#N)c1`, the EC50 was 37.5 µM. In the case of `CCc1c(-c2ccc(C(=O)NC)nc2)cnc(N)c1-c1ccc(O)cc1`, the EC50 is reported as 2.58 µM. With `CCc1c(-c2ccc3[nH]ncc3c2)cnc(N)c1-c1ccc(O)cc1` the EC50 was 0.3 µM. `Nc1nc(N)c(-c2ccc(O)cc2)cc1-c1ccc(O)cc1` gave an EC50 of 36.5 µM.

These compounds were tested against T1, Ubiquitin carboxyl-terminal hydrolase 7 (assay: Binding affinity to human His-tagged and [15N-13C-2H], delta1[13CH3]-Ile, [13CH3]-Leu/Val and [13CH3]-Met-labeled USP7-catalytic domain (208 to 554 residues) expressed in Escherichia coli Rosetta 2 (DE3) cells by 2D[1H-15N]-based TROSY spectrum NMR analysis).
`Oc1ccc(-c2nc(C3CCNCC3)no2)cc1` was tested, and the Kd was 12 to 27 µM. Work on `CN1CCC(c2noc(-c3ccc(O)cc3)n2)CC1` yielded a Kd of 12 to 27 µM.

— ChEMBL document CHEMBL4028910, “Discovery of Small-Molecule Inhibitors of Ubiquitin Specific Protease 7 (USP7) Using Integrated NMR and in Silico Techniques” (J Med Chem, 2017)
